Consider 23 compounds from PubChem BioAssay AID330 (DTP/NCI, 2004).

“And” between values parts separate entries of the source, which are not always exact repeats. Equal entries are not always repeated. Toxic doses and inconclusive results are not listed.

This assay deals with P388 leukemia ip, CD2F1 mice, survival T/C. As to the kind of experiment: NCI In Vivo Anticancer Drug Screen. Data for tumor model P388 Leukemia (intraperitoneal) in CD2F1 (CDF1) mice. As to conditions: endpoint: median survival time, higher = longer survival. The gist of the method:
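Mice carrying the transplanted tumor received test compound or vehicle. Survival was recorded in each group, and the value is the treated-group measurement divided by that of the vehicle-treated control group.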

[1] abbreviates: dose: 60.0 mg/kg/injection, schedule: Q01DX005 (ip), vehicle: saline with Tween-80.
The mark [2] stands for this setting: dose: 120.0 mg/kg/injection, schedule: Q01DX005 (ip), vehicle: saline with Tween-80.
The mark [3] stands for this setting: dose: 240.0 mg/kg/injection, schedule: Q01DX005 (ip), vehicle: saline with Tween-80.
Where [4] appears, read: dose: 100.0 mg/kg/injection, schedule: Q01DX009 (ip), vehicle: saline with Tween-80.
Where [5] appears, read: dose: 200.0 mg/kg/injection, schedule: Q01DX009 (ip), vehicle: saline with Tween-80.
Setting [6] is: dose: 50.0 mg/kg/injection, schedule: Q01DX005 (ip), vehicle: saline with Tween-80.
The mark [7] stands for this setting: dose: 100.0 mg/kg/injection, schedule: Q01DX005 (ip), vehicle: saline with Tween-80.
The mark [8] stands for this setting: dose: 200.0 mg/kg/injection, schedule: Q01DX005 (ip), vehicle: saline with Tween-80.
Setting [9] is: dose: 12.5 mg/kg/injection, schedule: Q01DX005 (ip), vehicle: saline with Tween-80.
Setting [10] is: dose: 25.0 mg/kg/injection, schedule: Q01DX005 (ip), vehicle: saline with Tween-80.

In the case of `CCn1c(=NC(=O)c2ccccc2O)sc2ccccc21`, the T/C (dose: 100.0 mg/kg/injection, schedule: Q01DX001 (ip), vehicle: saline) is 98 % of control and 95 % of control; the T/C (dose: 200.0 mg/kg/injection, schedule: Q01DX001 (ip), vehicle: saline) was 103 % of control and 95 % of control; the T/C (dose: 400.0 mg/kg/injection, schedule: Q01DX001 (ip), vehicle: saline) is 100 % of control and 103 % of control.

For the compound `COc1cccc2c1C(=O)c1c(O)c3c(c(O)c1C2=O)C[C@@](O)(CCO)C[C@@H]3OC1CC(N)C(O)C(C)O1` (stereo partly drawn), the T/C by setting is: (dose: 0.39 mg/kg/injection, schedule: Q01DX009 (ip), vehicle: water) 151 % of control; (dose: 0.78 mg/kg/injection, schedule: Q01DX009 (ip), vehicle: water) 158 % of control and 164 % of control; (dose: 1.2 mg/kg/injection, schedule: Q04DX003 (ip), vehicle: water) 119 % of control; (dose: 1.56 mg/kg/injection, schedule: Q01DX009 (ip), vehicle: water) 153 % of control and 158 % of control; (dose: 2.4 mg/kg/injection, schedule: Q04DX003 (ip), vehicle: water) 106 % of control and 112 % of control; (dose: 3.13 mg/kg/injection, schedule: Q01DX009 (ip), vehicle: water) 163 % of control and 164 % of control. In addition, the T/C by setting is: (dose: 4.7 mg/kg/injection, schedule: Q04DX003 (ip), vehicle: water) 120 % of control; (dose: 6.25 mg/kg/injection, schedule: Q01DX009 (ip), vehicle: water) 153 % of control; (dose: 9.4 mg/kg/injection, schedule: Q04DX003 (ip), vehicle: water) 154 % of control; (dose: 18.8 mg/kg/injection, schedule: Q04DX003 (ip), vehicle: water) 158 % of control; (dose: 75.0 mg/kg/injection, schedule: Q04DX003 (ip), vehicle: water) 97 % of control.

In the case of `O=C1C2C3CC(c4ccccc43)C2N1S(=O)(=O)Cl` (stereo not drawn), the T/C is, setting by setting: under setting [1], 107 % of control; under setting [2], 106 % of control; under setting [3], 114 % of control.

Consider `Sc1ccccc1N=Cc1ccc(C=Nc2ccccc2S)cc1`, for which the T/C by setting is: (dose: 50.0 mg/kg/injection, schedule: Q01DX009 (ip), vehicle: saline) 98 % of control; (dose: 100.0 mg/kg/injection, schedule: Q01DX009 (ip), vehicle: saline) 99 % of control; (dose: 200.0 mg/kg/injection, schedule: Q01DX009 (ip), vehicle: saline) 97 % of control.

Turning to `CN1NC(C)(c2cccnc2)SC1=S` (stereo not drawn), the T/C runs as follows: (dose: 50.0 mg/kg/injection, schedule: Q01DX009 (ip), vehicle: saline with Tween-80) 95 % of control; under setting [4], 100 % of control; under setting [5], 97 % of control.

Turning to `c1ccc(Cc2cc(-c3cc(Cc4ccccc4)[nH]n3)n[nH]2)cc1`, the T/C is 101 % of control (dose: 60.0 mg/kg/injection, schedule: Q01DX005 (ip), vehicle: Klucel + Tween-80); 106 % of control (dose: 120.0 mg/kg/injection, schedule: Q01DX005 (ip), vehicle: Klucel + Tween-80); 107 % of control (dose: 240.0 mg/kg/injection, schedule: Q01DX005 (ip), vehicle: Klucel + Tween-80).

Regarding `O=C(Nc1cccc(Cl)c1)/C(Cl)=C1/Sc2ccccc2NC1=O`, the T/C runs as follows: under setting [6], 105 % of control; under setting [7], 98 % of control; under setting [8], 98 % of control.

In the case of `c1ccc(Cc2csc3nc4ccccc4n23)cc1`, the T/C under setting [1] was 100 % of control, the T/C under setting [2] was 109 % of control and the T/C under setting [3] is 99 % of control.

On to `CC(C)n1nnc2c3ccccc3c3ccccc3c21`, for which the T/C was 109 % of control under setting [1], 102 % of control under setting [2] and 105 % of control under setting [3].

Regarding `CCOC/C(=N\NS(=O)(=O)c1ccc(C)cc1)C1(O)Cc2c(O)c3c(c(O)c2C(O)C1)C(=O)c1c(OC)cccc1C3=O` (stereo not drawn), the T/C is 100 % of control (dose: 1.56 mg/kg/injection, schedule: Q01DX009 (ip), vehicle: other); 100 % of control (dose: 3.13 mg/kg/injection, schedule: Q01DX009 (ip), vehicle: other); 103 % of control (dose: 6.25 mg/kg/injection, schedule: Q01DX009 (ip), vehicle: other); 107 % of control (dose: 12.5 mg/kg/injection, schedule: Q01DX009 (ip), vehicle: other); 94 % of control (dose: 25.0 mg/kg/injection, schedule: Q01DX009 (ip), vehicle: other).

Regarding `CC(=O)Nc1ccc(S(=O)(=O)Nc2c(-c3ccccc3)[nH]c(C)c2C(C)=O)cc1`, the T/C under setting [1] was 102 % of control, the T/C under setting [2] is 102 % of control and the T/C under setting [3] was 98 % of control.

With `CSC(=O)Nc1ccc(C)c(NC(=O)SC)c1`, the T/C is 94 % of control under setting [6], 100 % of control under setting [7] and 100 % of control under setting [8].

For the compound `CCC[N+](CCC)=c1ccc2nc3c(C)cc(N(CC)CC)cc3sc-2c1`, the T/C (dose: 0.78 mg/kg/injection, schedule: Q01DX009 (ip), vehicle: saline) is 108 % of control; the T/C (dose: 1.56 mg/kg/injection, schedule: Q01DX009 (ip), vehicle: saline) was 112 % of control; the T/C (dose: 3.13 mg/kg/injection, schedule: Q01DX009 (ip), vehicle: saline) is 113 % of control and 118 % of control; the T/C (dose: 6.25 mg/kg/injection, schedule: Q01DX009 (ip), vehicle: saline) was 123 % of control; the T/C (dose: 12.5 mg/kg/injection, schedule: Q01DX009 (ip), vehicle: saline) was 115 % of control.

For the compound `O=C(NCC(O)CNC(=O)Nc1ccc(C2=NCC(O)CN2)cc1)Nc1ccc(C2=NCC(O)CN2)cc1` (stereo not drawn), the T/C under setting [9] is 95 % of control; the T/C under setting [10] is 100 % of control; the T/C under setting [6] was 109 % of control and 97 % of control.

In the case of `CCC[CH2][Hg][O]C(C)=O`, the T/C (dose: 2.0 mg/kg/injection, schedule: Q01DX009 (ip), vehicle: other) was 95 % of control; the T/C (dose: 3.0 mg/kg/injection, schedule: Q01DX009 (ip), vehicle: other) is 100 % of control; the T/C (dose: 4.5 mg/kg/injection, schedule: Q01DX009 (ip), vehicle: other) was 113 % of control.

For the compound `CCOC(=O)CCCCCOCOC`, the T/C reads like this: (dose: 100.0 mg/kg/injection, schedule: Q01DX001 (ip), vehicle: saline with Tween-80) 106 % of control; (dose: 200.0 mg/kg/injection, schedule: Q01DX001 (ip), vehicle: saline with Tween-80) 98 % of control; (dose: 400.0 mg/kg/injection, schedule: Q01DX001 (ip), vehicle: saline with Tween-80) 106 % of control.

Turning to `CC1(C)CNC(=S)N1Cc1ccccc1`, the T/C reads like this: (dose: 50.0 mg/kg/injection, schedule: Q01DX009 (ip), vehicle: suspension in saline) 100 % of control; (dose: 100.0 mg/kg/injection, schedule: Q01DX009 (ip), vehicle: suspension in saline) 94 % of control; (dose: 200.0 mg/kg/injection, schedule: Q01DX009 (ip), vehicle: suspension in saline) 100 % of control.

Turning to `C1CC2OC2CC1C1CO1` (stereo not drawn), the T/C is 104 % of control under setting [4]; 100 % of control (dose: 100.0 mg/kg/injection, schedule: Q04DX003 (ip), vehicle: saline sonified); 104 % of control under setting [5]; 100 % of control (dose: 200.0 mg/kg/injection, schedule: Q04DX003 (ip), vehicle: saline sonified); 109 % of control (dose: 400.0 mg/kg/injection, schedule: Q04DX003 (ip), vehicle: saline sonified).

`COc1ccc(C(C)c2cc3c(cc2OCCO)OCO3)cc1` (stereo not drawn): the T/C by setting is: under setting [6], 105 % of control; under setting [7], 102 % of control; under setting [8], 105 % of control.

With `O=C(O)c1cccc(/C=C/c2ccccc2)c1`, the T/C under setting [6] was 107 % of control, the T/C under setting [7] was 105 % of control and the T/C under setting [8] is 114 % of control.

Consider `COc1cc([N+](=O)[O-])ccc1N=Cc1ccc(C=Nc2ccc([N+](=O)[O-])cc2OC)cc1`, for which the T/C (dose: 50.0 mg/kg/injection, schedule: Q01DX009 (ip), vehicle: Klucel (hydroxypropylcellulose) (HPC)) is 95 % of control and 96 % of control; the T/C (dose: 100.0 mg/kg/injection, schedule: Q01DX009 (ip), vehicle: Klucel (hydroxypropylcellulose) (HPC)) is 86 % of control and 96 % of control; the T/C (dose: 200.0 mg/kg/injection, schedule: Q01DX009 (ip), vehicle: Klucel (hydroxypropylcellulose) (HPC)) was 96 % of control.

For the compound `CCOC(=O)c1cc2c(=O)c3c(ccc4ccccc43)oc2n(C)c1=O`, the T/C is, setting by setting: under setting [9], 96 % of control; under setting [10], 94 % of control; under setting [6], 88 % of control.

Take `CCOC(=O)c1[nH]c(=S)sc1N`: the T/C is, setting by setting: under setting [1], 99 % of control; under setting [2], 92 % of control; under setting [3], 90 % of control.
